Like-named read-outs stand apart in the source and are kept apart here.
How the values were obtained:
rats = test: effect on spontaneous behavior (sleep induction) after ip injection; format: in vivo
Procedure: Synthetic cis-9,10-octadecenoamide was injected (ip) into rats in order to test its effect on spontaneous behavior at different doses: 1 (n=2), 2 (n=2), 5 (n=7), 10 (n=10), 20 (n=2), and 50 (n=2) mg, where n = number of rats tested. […] However, at a threshold of 5 mg and above there was a marked effect consisting of an induction of long-lasting motor quiescence associated with eyes closed, sedated behavior characteristic of normal sleep. Also as with normal sleep, the rats still responded to auditory stimuli with orienting reflex and sustained attention toward the source of stimulation. In addition, motor behavior was impaired. The latency to behavioral sedation following administration was about 4 minutes and subjects were normally active again after 1 hour (5 mg), 2 hour (10 mg), or 2.5 hour (20 mg and 50 mg).
(§1) We have compared cis-9,10-octadecenoamide to vehicle and the synthetic analogs listed in Figure 1 to estimate the structural specificity of its sleep-inducing potential. […] More particularly, male Sprague-Dawley rats (300 g at the time of surgery) were implanted under halothane anesthesia (2-3%) with a standard set of electrodes for sleep recordings. This included two screw electrodes placed in the parietal bone over the hippocampus to record the subjects electroencephalogram (EEG) and two wire electrodes inserted in the neck musculature to record postural tone through electromyographic activity (EMG). Rats were housed individually with at libitum access to food and water. The dark-light cycle was controlled (12:12, lights on a 10:00 p.m.). One week after the surgery, rats were habituated to the recording conditions for at least three days. Upon the completion of the habituation period, rats received 2 milliliter (ip) of either: vehicle (5% ethanol/saline solution), cis-9,10-octadecenoamide (10 mg), or oleic acid (10 mg). […] Sleep recordings were visually scored and four stages were determined: wakefulness, slow-wave-sleep 1 (SWS1), slow-wave-sleep 2 (SWS2), and rapid eye movement (REM) sleep.

male Sprague-Dawley rats = test: polysomnographic sleep recordings (EEG/EMG) after ip injection; format: in vivo; conditions: 10 mg ip, compared to vehicle controls, recorded four hours
Text: as §1
These increases with respect to slow wave sleep (SWS) were at the expense of waking.

[1] = target: T1, amidase activity which catalyzes both the hydrolysis and synthesis of arachidonylethanolamide (anandamide), membrane subcellular fractions from neuroblastoma, g (Rattus norvegicus, UniProt P97612); conditions: 1.5 mM concentration; cited from earlier work
T1 sequence (P97612 1-579): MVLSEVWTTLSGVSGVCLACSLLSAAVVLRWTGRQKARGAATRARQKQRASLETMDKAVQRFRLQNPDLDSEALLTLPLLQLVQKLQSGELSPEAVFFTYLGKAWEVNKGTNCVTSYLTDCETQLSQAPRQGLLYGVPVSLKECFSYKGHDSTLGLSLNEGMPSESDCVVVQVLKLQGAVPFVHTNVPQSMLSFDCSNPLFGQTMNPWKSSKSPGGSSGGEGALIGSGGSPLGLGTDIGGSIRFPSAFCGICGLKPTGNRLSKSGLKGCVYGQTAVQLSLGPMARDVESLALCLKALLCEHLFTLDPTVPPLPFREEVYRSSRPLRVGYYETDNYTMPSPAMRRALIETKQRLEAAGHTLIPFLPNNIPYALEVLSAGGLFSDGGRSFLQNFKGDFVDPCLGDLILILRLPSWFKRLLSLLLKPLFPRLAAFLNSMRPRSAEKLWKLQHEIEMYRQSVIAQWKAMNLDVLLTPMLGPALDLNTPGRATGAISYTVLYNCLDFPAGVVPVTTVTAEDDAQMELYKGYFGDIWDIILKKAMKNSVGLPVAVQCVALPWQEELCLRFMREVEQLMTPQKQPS

[2] = target: T2, cis-9,10-octadecenoamidase, rat brain membrane fraction (Rattus norvegicus, UniProt P97612); format: biochemical; conditions: 1 mM inhibitor, 1000 µM
T2 sequence (P97612 1-579): T1 sequence (P97612 1-579)
Procedure: In each case the enzymic reaction is performed is a separate reaction vessel and the product is spotted onto a TLC plate.
The following protocol is used for assaying cis-9,10-octadecenoamide hydrolysis activity: To […] of 125 mM Tris·HCl, pH 9.0 was added successively 70 mL protein fraction (1 mg/mL protein concentration for brain membrane fraction, 2 mg/mL for brain soluble fraction, 5 mg/mL for pancreatic microsomal preparation), 6 mL of ethanol, and 4 mL of ^14C-cis-9,10-octadecenoamide (in ethanol, 0.25 mCi/mL). Each reaction mixture is incubated for 4 hours at 37°C and then partitioned between EtOAc and 0.07 M HCl. The EtOAc layer is evaporated to dryness and the remaining residue is dissolved in 15 mL ethanol. TLC fractions are taken from this ethanol stock. TLC plates are treated with EN^3HANCE spray and developed at -78°C for 2 hours.

CCCCCCCCC/C=C\CCCCCCC(N)=O [Compound 3, Cis-8,9-octadecenoamide]
pharmacological effects compared with cis-9,10-octadecenoamide (rats; rats): substantial reduction in both the degree and duration of the pharmacological effects

CCCCCC/C=C\CCCCCCCCCC(N)=O [Compound 4, Cis-11,12-octadecenoamide]
pharmacological effects compared with cis-9,10-octadecenoamide (rats; rats): substantial reduction in both the degree and duration of the pharmacological effects

CCCCCCCC/C=C\CCCCCCCCCCCC(N)=O [Compound 6, Erucamide]
pharmacological effects compared with cis-9,10-octadecenoamide (rats; rats): substantial reduction in both the degree and duration of the pharmacological effects

CCCCCCCC/C=C\CCCCCCCC(N)=O [cis-9,10-octadecenoamide, Cis-9,10-octadecenoamide]
time after which subjects were normally active again (rats; 5 mg ip, rats): 1 h
time after which subjects were normally active again (rats; 10 mg ip, rats): 2 h
duration of the biological effect (sleep-inducing properties) (rats; 10 mg per rat): two
time after which subjects were normally active again (rats; 20 mg ip, rats): 2.5 h
time after which subjects were normally active again (rats; 50 mg ip, rats): 2.5 h
latency to behavioral sedation following administration (rats; ip, rats): about 4 minutes
threshold dose for induction of long-lasting motor quiescence, sedated behavior characteristic of normal sleep (rats; ip, rats): 5 mg
effect on spontaneous behavior (rats; lower doses (1 and 2 mg), ip, rats): no overt effect on spontaneous behavior
mean duration of the SWS individual periods (male Sprague-Dawley rats): increase
total time of slow wave sleep (SWS) (male Sprague-Dawley rats): increase

CCCCCCCC/C=C\CCCCCCCC(=O)O [oleic acid, Oleic acid, reference compound]
overt behavioral effect (rats; rats, compared with cis-9,10-octadecenoamide): nor oleic acid (5) showed any overt behavioral effect

O=S(=O)(F)Cc1ccccc1 [phenylmethylsulfonyl fluoride]
inhibition of the amidase activity (anandamide hydrolysis) [1]: completely inhibited
inhibition of enzymatic activity (hydrolysis of cis-9,10-octadecenoamide to oleic acid) [2]: completely inhibited
inhibition of enzymatic activity (hydrolysis of cis-9,10-octadecenoamide to oleic acid) ([2]; listed as PMSF): inhibited
